The results in this text go back to PubChem BioAssay (NCI).

Molecules are shown by their SMILES. “And” between values parts separate entries of the source, which are not always exact repeats. Equal entries are not always repeated.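 Interpolation was linear, between the two tested concentrations surrounding the appropriate level; five concentrations were tested over 48 hours in 96-well plates. GI50 = concentration required for 50% inhibition of growth. TGI denotes the concentration required for complete inhibition of growth.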 Where only a bound is given, the exact number is not on record here.

Holding throughout (test): growth of human tumour cells (NCI), 48 h
The test system of experiment [1] is HT29 colon.
Experiment [2] has as its system HCT-15 colon.
In experiment [3] the test system is SNB-19 CNS.
In experiment [4] the test system is NCI-H226 lung.
Experiment [5] has as its system HCT-116 colon.
Experiment [6] has as its system BT-549 breast.
For experiment [7], the system named is MDA-MB-435.
For experiment [8], the system named is MOLT-4 leukemia.
Experiment [9] deals with ACHN renal.
For experiment [10], the system named is IGROV1 ovarian.

On to `Cn1cnc([N+](=O)[O-])c1Sc1nc(N)nc2nc[nH]c12`, for which the GI50 was 5.19 µM in [1]; 5.11 µM in experiment [2]; more than 100 µM in experiment [3]; 7.5 µM in experiment [4]; 2.71 µM in experiment [5]; 5.08 µM in experiment [6]. The GI50 in experiment [7] was 3.31 µM; in [8], 3.55 µM; in experiment [9], 10 µM; in experiment [10], 14 µM. The TGI in experiment [1], in experiment [2], in [3], in [4], in experiment [5] and in [6] was more than 100 µM in each case. The TGI in experiment [7], in experiment [8], in [9] and in experiment [10] was more than 100 µM in each case.

As for `CC[C@@]1(O)C(=O)OCc2c1cc1n(c2=O)Cc2cc3c(N)cccc3nc2-1`, the GI50 was 0.0774 µM in [1]; 0.0179 µM in experiment [4]; 0.00979 µM and 0.0559 µM in experiment [5]; 0.0394 µM in experiment [6]; 0.00295 µM in experiment [8]; 0.00448 µM in [9]. The TGI in experiment [1] was more than 30.1 µM; in experiment [2] it was 33.7 µM; in experiment [3], 6.05 µM; in [4], 0.105 µM; in [5] it was 0.737 µM; in experiment [6] it was 5.26 µM. Besides, the TGI in experiment [7] was 2.16 µM; in experiment [8], 0.0605 µM and 0.0649 µM; in [9] it was 0.0501 µM; in [10] it was 6.26 µM.

Take `Cc1cc(NC(=O)NC(=O)c2ccccc2N(C)C)ccc1Oc1ncc(Br)cn1`: the TGI in [1] was 15.2 µM; in [2], more than 68.1 µM; in experiment [3] it was more than 81.5 µM; in experiment [4], more than 90 µM; in [5], 50.2 µM; in experiment [6], more than 46.4 µM. Also, the TGI was 2.84 µM in [7], 39.7 µM in experiment [8], more than 68.1 µM in [9] and more than 63.1 µM in experiment [10]. Moreover, the GI50 in [3] is 0.749 µM; in [4], 1.88 µM; in experiment [5] it was 0.389 µM; in [8] it was 0.533 µM; in [9] it was 0.404 µM; in experiment [10], 0.356 µM.

With `CCCn1cnc2c(SCc3ccccc3)nc(N)nc21`, the GI50 in experiment [1] is more than 100 µM; in [2], 37.8 µM; in experiment [3], more than 100 µM; in experiment [4], 30.5 µM; in experiment [5] it was 63 µM; in experiment [6], 51.9 µM. Further, the GI50 is more than 100 µM in [7], 95.7 µM in experiment [8], more than 100 µM in experiment [9] and more than 100 µM in experiment [10]. For the same molecule, the TGI in experiment [1], in experiment [2], in experiment [3], in experiment [4], in experiment [5] and in experiment [6] was more than 100 µM each time. Besides, the TGI in [7], in experiment [8], in [9] and in experiment [10] was more than 100 µM throughout.

In the case of `C[C@@H]1C/C=C\C(=O)O[C@H](/C=C/C#C/C=C/C(C)(C)[C@@H](O)c2cccc(O)c2Br)[C@@H](C)/C=C/[C@H](C)C[C@H](OC(N)=O)C1`, the GI50 is 0.029 µM in experiment [1]; 0.034 µM in experiment [2]; 1.66 µM in [3]; 0.445 µM in experiment [4]; 0.0362 µM in [5]; 0.0308 µM in [6]. Besides, the GI50 is 0.0332 µM in experiment [7], 0.034 µM in [8], 0.0405 µM in experiment [9] and 0.0344 µM in experiment [10]. Besides, the TGI in experiment [1] was determined as 5.77 µM; in experiment [2], 11.9 µM; in experiment [3] it was 19.1 µM; in [4] it was 19 µM; in [5] it was 12.5 µM; in experiment [6] it was 18.2 µM. Moreover, the TGI amounted to 12.1 µM in experiment [7], 40.8 µM in [8], 14.5 µM in experiment [9] and 18.5 µM in experiment [10].

On to `CC(=O)Oc1ccc(C2(c3ccc(OC(C)=O)cc3)C(=O)Nc3ccccc32)cc1`, for which the GI50 was 30.4 µM and 45.3 µM in experiment [1]; 20.5 µM and 25.8 µM in experiment [2]; 42.9 µM and > 61.1 µM in experiment [3]; more than 100 µM in experiment [4]; 34.1 µM and 25.8 µM in experiment [5]; 0.064 µM and 0.158 µM in experiment [6]. The GI50 in experiment [7] is 30.6 µM and 29.8 µM; in experiment [8], 16.3 µM and 28.3 µM; in experiment [9], 18.9 µM and 30.6 µM; in experiment [10], 11.2 µM and 16.8 µM. Further, the TGI in [1] was more than 100 µM; in [2], more than 100 µM; in [3] it was more than 100 µM; in experiment [4], more than 100 µM; in experiment [5], more than 100 µM; in experiment [6], 0.524 µM and 0.733 µM. Moreover, the TGI in experiment [7] was more than 100 µM; in [8] it was more than 100 µM; in [9] it was more than 100 µM; in [10], 81.3 µM and > 100 µM.

`COc1ccc2cc(-c3c(-c4ccncc4)nc(-c4ccc(S(C)=O)cc4C)n3C)ccc2c1` (stereo not drawn): the GI50 in experiment [1] was 10.6 µM; in [2] it was 16.7 µM; in experiment [3] it was more than 25 µM; in experiment [4] it was more than 20.5 µM; in experiment [5], 17.9 µM; in [6] it was more than 21.9 µM. Also, the GI50 is 11.2 µM in experiment [7], 17.4 µM in experiment [8], 13.2 µM in experiment [9] and 11.1 µM in experiment [10]. Further, the TGI in [1], in experiment [2], in experiment [3], in experiment [4], in experiment [5] and in experiment [6] was more than 25 µM throughout. The TGI in [7], in experiment [8], in [9] and in [10] was more than 25 µM throughout.

On to `Cc1ccc(/C=C2\CNC/C(=C\c3ccc(C)cc3)C2=O)cc1`, for which the GI50 in experiment [1] was 0.392 µM; in experiment [2] it was 0.407 µM; in experiment [3], 1.93 µM; in experiment [5] it was 0.202 µM; in experiment [8], 1.81 µM; in [10], 3.64 µM. In addition, the TGI is 1.41 µM and 3.04 µM in experiment [1]; 1.45 µM and 3.62 µM in experiment [2]; 4.78 µM and 15 µM in [3]; 4.85 µM and 4.96 µM in experiment [4]; 0.382 µM and 1.93 µM in [5]; 4.28 µM in experiment [6]. Besides, the TGI is 19.9 µM in experiment [7]; 4.84 µM and 19.2 µM in experiment [8]; 3.81 µM and 5.93 µM in experiment [9]; 4.92 µM in experiment [10].
